Data on two compounds can be found in patent US8884032B2, “Trioxane monomers and dimers” (The Johns Hopkins University, priority 2009, dated 2014).

Data set [1] has as its system Plasmodium berghei, ANKA malaria strain. Nature of the data set: Antimalarial efficacy of a single oral dose (7.1 mg/kg) of trioxane combined with mefloquine hydrochloride (21 mg/kg) in Plasmodium berghei-infected mice (Table 2). The format is in vivo. As to the method: (§1) Each trioxane dimer 12a-12c (0.90 mg) was dissolved in 0.11 mL of 7:3 Tween 80:ethanol and then diluted with 1.10 mL of distilled water for oral administration to 5-week-old C57BL/6J male mice (Jackson Laboratory) weighing about 21 g that were infected ip on day 0 with the Plasmodium berghei, ANKA malaria strain (2×10^7 parasitized erythrocytes) [Chen et al., 2006]. Each of five mice in a group was treated orally 24 h post-infection with a single dose of 0.20 mL (0.20 mL/1.21 mL×0.9 mg=0.15 mg) of diluted compound solution, corresponding to a dose of 7.1 mg/kg, combined with 21 mg/kg of mefloquine hydrochloride. Both determining blood parasitemia levels, as well as monitoring the duration of animal survival compared with survival time of infected animals receiving no drug, are widely accepted measures of drug efficacy in antimalarial drug development. […] The average survival time of the animals receiving no drug was 15.8 days post-infection. […] Widely accepted indications of complete cure (i.e. 100% efficacy) are survival of animals to day 30 post-infection with no detectable malaria parasites in the animal's blood at that time.

The subject of data set [2] is Plasmodium berghei, ANKA strain. Put plainly: Antimalarial efficacy of a single oral dose of trioxane combined with mefloquine hydrochloride in Plasmodium berghei-infected mice (Table 1). The format is in vivo. As to the method: Each trioxane 2b, 3, 4a, and 4b (0.90 mg) was dissolved in 0.11 mL of 7:3 Tween 80:ethanol and then diluted with 1.10 mL of water for oral administration to 5-week old C57BL/6J male mice (from the Jackson Laboratory) weighing about 22 g that were infected intraperitoneally on day 0 with the Plasmodium berghei, ANKA strain (2×10^7 parasitized erythrocytes). Chen et al., 2006.
Each of five mice in a group was treated orally 24 h post-infection with a single dose of 0.20 mL (0.20 mL/1.21 mL×0.9 mg=0.15 mg) of diluted compound solution, corresponding to a dose of 6.8 mg/kg, combined with 20 mg/kg of mefloquine hydrochloride. Determining blood parasitemia levels, as well as monitoring the duration of animal survival compared to survival time of animals receiving no drug, are both widely accepted as measures of a drug's efficacy in antimalarial drug development. […] Animals receiving no drug died on days 6-7 post-infection. A widely accepted yardstick of cure (i.e., 100% efficacy) is survival of animals to day 30 post-infection, with no detectable malaria parasites in the animal's blood at that time.
Average survival results are summarized in Table 1, including single oral doses of 13 mg/kg of trioxane combined with 13 mg/kg of mefloquine hydrochloride. The clinically used monomeric water-soluble trioxane drug 2c and the synthetic trioxolane peroxide drug development candidate OZ277 (9) maleate are included as monotherapy reference compounds.

Data set [3] can be described thus: Overt toxicity, behavioral change and body weight in treated malaria-infected mice (dimer ester study). The format is in vivo. The settings on record: 7.1 mg/kg trioxane + 21 mg/kg mefloquine hydrochloride, mice surviving 30 days. As to the method: as §1
In data set [4] the test system is Plasmodium berghei. As to conditions: monotherapy, single oral dose 30 mg/kg; data from Vennerstrom et al.; cited from earlier work.
Setting [5] is: single oral dose 13 mg/kg trioxane + 13 mg/kg mefloquine hydrochloride.

Structures are written as SMILES. Several values for one entry are separate records, joined by “and”; a condition that tells them apart may be missing. Equal entries are not always repeated. Marks after values point to notes of the source that are not given here.

For the compound `CO[C@H]1O[C@@H]2O[C@@]3(C)CC[C@H]4[C@H](C)CC[C@@H]([C@H]1C)[C@@]24OO3` [2b, artemether, reference compound], in data set [1] (7.1 mg/kg trioxane + 21 mg/kg mefloquine hydrochloride), the “survival after infection (all mice)” value is 30 days. In addition, the “No. of mice parasite free (day 30)” value in data set [1] (single oral dose 7.1 mg/kg trioxane + 21 mg/kg mefloquine hydrochloride, five mice) is 4. Further, in data set [1] (single oral dose 7.1 mg/kg trioxane + 21 mg/kg mefloquine hydrochloride, number of parasitemic mice in brackets), the “% parasitemia on day 30%” value is 1.6 (1 mouse) %. For the same compound, the “% Suppression of Parasitemia (on day 3 post-infection)” value in data set [2] (single oral dose 6.8 mg/kg trioxane + 20 mg/kg mefloquine hydrochloride) is given as 99.8%; in data set [2] (setting [5]), 99.7%. Also, the “Average Survival (days) After Infection” value was 19.8 days and 19.8 (16, 17, days in data set [2] (single oral dose 6.8 mg/kg trioxane + 20 mg/kg mefloquine hydrochloride, 24 h post-infection, C57BL/6J mice); 19.6 (16, 17, days in data set [2] (setting [5]). Further, the weight gain in data set [3] was 10-20%.
As to `CC(C)(N)CNC(=O)C[C@H]1CC[C@]2(CC1)OO[C@]1(O2)C2CC3CC(C2)CC1C3` [compound 9], in data set [4], the “% Suppression of Parasitemia (on day 3 post-infection)” value is on record as 99.95^b %.
